Columns and labels:
[1] = test system: Human HSV-1 (strain C42 or SC16); assay: Experiment 2: sequential test of foscarnet cream and an antiinflammatory cream in the animal model for recurrent herpes infection
Source text: In the novel animal model, virus is inoculated in the neck of a mouse. The virus will then be transported through the nerves to the skin of the corresponding ear. This transport will take approximately 3-4 days. On day 2 the animals are given immune cells with reactivity against the infecting virus. Subsequently, when the virus arrives at the ear, the animal instantly mobilises an effective immune response against the virus, thus mimicking the clinical situation of a recurrent herpes infection.
The development of zosteriform spread infection is then recorded by daily inspection of the occurrence of lesions on the pinna and swelling of the ear.
The lesions are scored on a scale from 0 to 4 as follows: • 0: no lesions on the ear • 1: isolated zosteriform lesions on the ear • 2: mild ulceration of zosteriform lesions on the ear • 3: moderate ulceration of zosteriform lesions on the ear • 4: severe ulceration of zosteriform lesions on the ear
Swelling of the ear was assessed by measuring the thickness of the ears using an engineers micrometer, as described by Kristofferson et al. The titre of infectious virus in the ear was measured as described by Kristofferson et al, except that BHK (baby hamster kidney) cells were used in addition.
On day 2 after infection the animals are given adoptive transfer of immunity, ATI, against HSV-1 by intravenous injection of 2×10^7 lymph node cells into the tail. Said lymph node cells had been prepared by injecting HSV-1 (10^5 pfu, strain C42 or strain SC16) into the pinna of both ears of anaesthetisized female Balb/C mice (16-18 g). Seven days post infection the animals are sacrificed by cervical dislocation, the draining lymph nodes are removed, and a suspension of lymph node cells in phosphate buffered saline is prepared by means of a micro mesh.
On day 4 after the infection and for 4 days, a composition to be tested as to activity against recurrent herpes is distributed equally in an amount of approximately 25 mg of cream on each side of the ear, every 8 h.
In this experiment the animals were treated with two different formulations 2 hours apart. First the foscarnet cream was applied and 2 hours later the antiinflammatory formulation. This was repeated three times daily during the treatment period (day 4-7 after infection).
The following substances were tested: foscarnet (3%, Foscarnet Cream), budesonide (0.025%, Preferid®, Gist-Brocades, The Netherlands), hydrocortisone (1%, Hydrokortison kräm 1% ACO, Kabi Pharmacia AB, Sweden), lidocaine (5%, Xylocaine®, Astra AB) and ketoprofen (2.5%, Oruvail®, Rhone-Poulenc Rorer NS, Denmark)

[2] = test system: Human HSV-1 (strain C42 or SC16); assay: Experiment 3: combination creams of an antiviral and an anti-inflammatory substance in the animal model for recurrent herpes infection; format: in vivo, Balb/C mice; details: for ear thickness (% of placebo) / Lesion score (% of placebo): placebo set to 100%
Procedure: Human HSV-1 (2×10^5 plaque forming units, pfu, strain C42 or SC16) is inoculated into the neck of groups of 10-18 female in-bred Balb/C mice (16-18 g) as described by Kristofferson et al. (“Limited efficacy of inhibitors of herpes simplex virus DNA synthesis in murine models of recrudescent disease”, J. Gen. Virol. 1988; 69:1157-66). The development of zosteriform spread infection is then recorded by daily inspection of the occurrence of lesions on the pinna and swelling of the ear.
The same animal model with ten animals in each group was used.

recurrent HSV infections = details: oral formulation, used after the appearance of symptoms; cited from earlier work
[3] = test system: Human HSV-1 (strain C42 or SC16); assay: Experiment 1: combination creams of foscarnet and an antiinflammatory substance in the animal model for recurrent herpes infection; format: in vivo, Balb/C mice; details: for Compounded value ± s.d., Ear thickness / Compounded value ± s.d., Lesion score: cream day 4-7 after infection three times daily, mean cumulative over days 4-12, 15 and 21, ATI day 2; for Compounded value ± s.d., Lesion score: score scale 0-4; for Ear thickness (% of placebo): cumulative ear thickness; for Ear thickness (% of placebo) / Lesion score (% of placebo): placebo set to 100%; for Lesion score (% of placebo): cumulative lesion score
Procedure: This transport will take approximately 3-4 days. […] Budesonide and lidocaine were selected for testing as examples of antiinflammatory compounds. The foscarnet cream Foscarnet Cream was prepared as described in Example 1. The cream base without drug was used as placebo. The cream base described above was also mixed with budesonide cream (0.025%, […]-Brocades, The Netherlands) to obtain suitable concentrations for treatment. […] Foscarnet, the two antiinflammatory substances, as well as the two combination creams were tested in the animal model described, with ten animals in each group. The respective cream was applied day 4-7 after infection three times daily.

[4] = systemic treatment, 50 mg/kg injected intra-peritoneally three times daily
[5] = topical cream three times daily days 4-7 after infection, ATI day 2

SMILES | Mean cumulative value ± s.d., ear thickness [2, 5] [mm] | Mean cumulative value ± s.d., lesion score [2, 5] | Lesion score (% of placebo) ([2]; topical cream) | ear thickness (% of placebo) ([2]; topical cream) | Compounded value ± s.d., Ear thickness [3] [mm] | Compounded value ± s.d., Lesion score [3] | Ear thickness (% of placebo) [3] | Lesion score (% of placebo) [3] | other results
O=C(O)Cc1ccccc1Nc1c(Cl)cccc1Cl [diclofenac] |  |  |  |  |  |  |  |  | Side-effects of topical NSAID ([1]; topical gel, probably systemic absorption in too high amounts): toxic side-effects
COc1ccc2c(c1)c(CC(=O)O)c(C)n2C(=O)c1ccc(Cl)cc1 [indomethacin] |  |  |  |  |  |  |  |  | Side-effects of topical NSAID ([1]; mouse, in vivo): toxic side-effects
Nc1nc2c(ncn2COCCO)c(=O)[nH]1 [Acyclovir] | 3.3 ± 0.3 | 8.0 ± 1.3 | 118 % of placebo | 100 % of placebo |  |  |  |  | ear thickness (% of placebo) ([2]; systemic treatment, 50 mg/kg i.p. three times daily): 88 % of placebo; Mean cumulative value ± s.d., ear thickness [2, 4]: 3.0 ± 0.4 mm; Mean cumulative value ± s.d., lesion score [2, 4]: 7.0 ± 1.6; Shortening of healing time (recurrent HSV infections): no more than approximately one day
O=C(O)P(=O)(O)O [Foscarnet, Trisodium phosphonoformate hexahydrate] | 3.3 ± 0.2 | 7.3 ± 1.2 | 107 % of placebo | 98 % of placebo | 3.0 ± 0.4 | 7.5 ± 2.5 | 82 % of placebo | 82 % of placebo | Virus titre in the ear ± s.d. on d 7 ([1]; ATI +, day 7 after infection): 3.25 ± 0.49 log10pfu/ml; Ear thickness (% of placebo) ([1]; cumulative ear thickness, placebo set to 100%): 88 % of placebo; Lesion score (% of placebo) ([1]; cumulative lesion score, placebo set to 100%): 84 % of placebo; Reduction of virus titre compared to placebo-treated animals ([1]; day 7 after infection): about tenfold; Mean cumulative value ± s.d., lesion score ([1]; foscarnet cream, 2 hours later antiinflammatory cream, three times daily day 4-7 after infection, ATI day 2): 4.8 ± 2.0; Mean cumulative value ± s.d., Ear thickness ([1]; foscarnet cream, 2 hours later antiinflammatory cream, three times daily day 4-7 after infection, measured as in Experiment 1): 2.8 ± 0.3; Effect on ear thickness ([1]; in comparison to placebo): small reduction; Effect on lesion score ([1]; in comparison to placebo): small reduction
CCN(CC)CC(=O)Nc1c(C)cccc1C [Lidocaine] |  |  |  |  | 3.6 ± 0.3 | 9 ± 2 | 100 % of placebo | 98 % of placebo | Effect on ear thickness / inflammation ([3]; compared to placebo or single creams): no effect
C[C@]12CCC(=O)C=C1CC[C@@H]1[C@@H]2[C@@H](O)C[C@@]2(C)[C@H]1CC[C@]2(O)C(=O)CO [Hydrocortisone] | 2.0 ± 0.2 | 6.0 ± 1.3 | 88 % of placebo | 61 % of placebo |  |  |  |  | 
CCCC1O[C@@H]2C[C@H]3[C@@H]4CCC5=CC(=O)C=C[C@]5(C)[C@H]4[C@@H](O)C[C@]3(C)[C@]2(C(=O)CO)O1 (stereo partly drawn) [Budesonide] |  |  |  |  | 2.1 ± 0.4 | 8.8 ± 1.8 | 58 % of placebo | 96 % of placebo | 
